In brackets after ≈: the same amount, converted by molar mass. Read-outs that look alike come from different tables or passages of the source.
Columns and labels:
human GPR40 receptor = human GPR40 receptor (Homo sapiens (Human), UniProt O14842); assay: IP1 accumulation measurements using the IPOne assay system; assay type: cell-based
Description: IP1 accumulation measurements using the IPOne assay system—1321N1 cells stably expressing human GPR40 receptor (Euroscreen, Belgium) are seeded 24 h before the assay in white 384-well plates in culture medium containing 10% FCS, 1% Na-Pyruvate and 400 μg/mL G418. IP1 is assayed according to the manufacturer's description (Cisbio Bioassays, France). In brief, the assay is started by substitution of the culture medium by stimulation buffer (Hepes 10 mM, CaCl2 1 mM, MgCl2 0.5 mM, KCl 4.2 mM, NaCl 146 mM, glucose 5.5 mM and LiCl 50 mM, pH 7.4). Cells are stimulated for 1 h at 37° C., 5% CO2 by addition of the compounds that are diluted in stimulation buffer containing LiCl. Assays are stopped by adding HTRF-conjugates (IP1-d2 and Anti-IP1 cryptate Tb) and lysis buffer, provided by the manufacturer. After an incubation time of 1 h at room temperature plates are measured using an EnVision™, Perkin Elmer. The obtained fluorescence ratios at 665/615 […] are then used to calculate the pEC50 values using Assay Explorer 3.3 Software (Accelrys, Inc.) by interpolation using an IP1 reference curve and subsequent sigmoidal curve fitting allowing for a variable hill slope.

Aqueous solubility = assay type: physicochemical; settings: buffer pH 2.2, 24 h shaking, 2.5% DMSO; for solubility at 24 h: aqueous buffer, kinetic from dmso stock
Description: Starting from a 10 mM DMSO stock solution aliquots are diluted with acetonitrile/water (1/1) or buffer, respectively. After 24 h of shaking, the solutions are filtrated and analyzed by LC-UV. The amount dissolved in buffer is compared to the amount in the acetonitrile solution.

[1] = biological target: cytochrome P450 2C8-isoenzyme (Homo sapiens (Human), UniProt P10632); assay: Inhibition of CYP-2C8 (amodiaquine deethylation, human liver microsomes); assay type: in vitro ADME; settings: amodiaquine 1 μM, 37° C.
cytochrome P450 2C8-isoenzyme, sequence (P10632 whole entry): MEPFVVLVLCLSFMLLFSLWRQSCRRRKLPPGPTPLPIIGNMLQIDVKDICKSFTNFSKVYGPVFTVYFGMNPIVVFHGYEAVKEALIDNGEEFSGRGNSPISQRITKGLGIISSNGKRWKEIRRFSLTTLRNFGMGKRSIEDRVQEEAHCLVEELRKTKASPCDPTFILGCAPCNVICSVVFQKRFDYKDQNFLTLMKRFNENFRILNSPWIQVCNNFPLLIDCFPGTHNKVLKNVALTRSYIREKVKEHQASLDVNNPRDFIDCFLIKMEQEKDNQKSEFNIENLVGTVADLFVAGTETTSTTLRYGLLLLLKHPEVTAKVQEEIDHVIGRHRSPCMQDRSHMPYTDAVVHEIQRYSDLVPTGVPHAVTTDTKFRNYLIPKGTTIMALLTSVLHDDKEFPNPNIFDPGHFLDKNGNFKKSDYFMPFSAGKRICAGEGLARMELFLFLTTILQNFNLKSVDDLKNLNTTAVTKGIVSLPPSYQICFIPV
Description: (§1) All assays are carried out on a robotic system in 96 well plates. The final incubation volume contains TRIS buffer (0.1 M), MgCl2 (5 mM), human liver microsomes (0.05 mg/mL), amodiaquine (1 μM) and the test compound at five different concentrations or no compound (high control) in duplicate (e.g. highest concentration 10-50 μM with subsequent serial 1:4 dilutions). Following a short preincubation period, reactions are started with the cofactor (NADPH, 1 mM) and stopped by cooling the incubation down to 8° C. and subsequently by addition of one volume of acetonitrile. An internal standard solution—the stable isotope d5-desethylamodiaquine—is added after quenching of incubations. Peak area analyte (=metabolite formed) and internal standard is determined by LC-MS/MS. The resulting peak area ratio analyte to internal standard in these incubations is compared to a control activity containing no test compound. Within each of the assay runs, the IC50 of a positive control inhibitor (Montelukast) is determined.

[2] = biological target: cytochrome P450 2C9-isoenzyme (Homo sapiens (Human), UniProt P11712); assay: Inhibition of CYP-2C9 (diclofenac hydroxylation, human liver microsomes); assay type: in vitro ADME; settings: diclofenac 10 μM, 37° C.
cytochrome P450 2C9-isoenzyme, sequence (P11712 whole entry): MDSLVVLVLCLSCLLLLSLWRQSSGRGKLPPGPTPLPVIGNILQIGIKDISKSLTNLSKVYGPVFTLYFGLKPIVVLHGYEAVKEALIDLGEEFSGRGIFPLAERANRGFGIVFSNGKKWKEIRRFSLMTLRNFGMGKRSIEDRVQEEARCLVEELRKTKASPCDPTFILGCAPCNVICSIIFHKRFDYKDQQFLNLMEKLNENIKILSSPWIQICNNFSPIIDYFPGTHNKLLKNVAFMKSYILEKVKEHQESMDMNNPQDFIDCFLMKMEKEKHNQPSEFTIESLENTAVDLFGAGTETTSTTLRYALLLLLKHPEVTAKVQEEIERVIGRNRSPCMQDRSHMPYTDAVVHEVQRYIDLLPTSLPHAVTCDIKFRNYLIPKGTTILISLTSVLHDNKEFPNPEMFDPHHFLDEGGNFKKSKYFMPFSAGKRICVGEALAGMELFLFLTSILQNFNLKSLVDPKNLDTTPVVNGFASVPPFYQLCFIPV
Description: as §1, with “(0.1” for “(0.05”, “diclofenac (10” for “amodiaquine (1”, “(e.g.,” for “(e.g.”, “^13C6-hydroxydiclofenac—is” for “d5-desethylamodiaquine—is”, “(sulfaphenazole)” for “(Montelukast)”

[3] = 1321N1 cells stably expressing human GPR40, 1 h stimulation, read-out: EC50
[4] = head-to-head compilation, given as IC50, values equal the EC50 of Table 2, read-out: GPR40: IC50

human GPR40 receptor, sequence (O14842 whole entry): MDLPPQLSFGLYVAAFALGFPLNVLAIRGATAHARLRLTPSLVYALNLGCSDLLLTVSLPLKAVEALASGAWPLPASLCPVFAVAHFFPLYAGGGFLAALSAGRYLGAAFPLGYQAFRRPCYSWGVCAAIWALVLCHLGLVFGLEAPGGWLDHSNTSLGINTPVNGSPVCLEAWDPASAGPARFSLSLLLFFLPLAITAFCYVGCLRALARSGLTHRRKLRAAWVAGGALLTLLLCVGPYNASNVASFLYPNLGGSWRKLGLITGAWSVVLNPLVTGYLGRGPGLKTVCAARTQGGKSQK

## N#CC1(c2ccccc2-c2ccc(F)c3c2CC[C@H]3Nc2ccc([C@H]3C[C@@H]3C(=O)O)nc2)CC1 (mixture of isomers) [Example 25]
Human GPR40 receptor; [3]
  EC50: 344 nM
Aqueous solubility
  Solubility at pH value 2.2: 110 μg/mL
[1]
  IC50: 49 µM
[2]
  IC50: 40 µM

## Cc1cc(O[C@H]2CCOC2)cc(C)c1-c1ccc(F)c2c1CC[C@H]2Nc1ccc([C@H]2C[C@@H]2C(=O)O)nc1 (mixture of isomers) [Example 33]
Human GPR40 receptor; [3]
  EC50: 12 nM
Aqueous solubility
  Solubility at pH value 2.2: 103 μg/mL
[1]
  IC50: 40 µM
[2]
  IC50: > 50 µM

## Cc1cc(OCCC(C)(C)O)cc(C)c1-c1ccc(F)c2c1CC[C@H]2Nc1ccc(C2C[C@@H]2C(=O)O)nc1 (stereo partly drawn) [Example 1, trans-2-(5-{(R)-7-Fluoro-4-[4-(3-hydroxy-3-methyl-butoxy)-2,6-dimethyl-phenyl]-indan-1-ylamino}-pyridin-2-yl)-cyclopropanecarboxylic acid]
Human GPR40 receptor; [3]
  EC50: 11 nM

## Cc1cc(OCCC(C)(C)O)cc(C)c1-c1ccc(F)c2c1CC[C@H]2Nc1ccc([C@H]2C[C@@H]2C(=O)O)nc1 [Example 2, (1S,2S)-2-(5-{(R)-7-Fluoro-4-[4-(3-hydroxy-3-methyl-butoxy)-2,6-dimethyl-phenyl]-indan-1-ylamino}-pyridin-2-yl)-cyclopropanecarboxylic acid]
Human GPR40 receptor; [3]
  EC50: 4 nM
Human GPR40 receptor; [4]
  EC50: 4 nM
Aqueous solubility
  solubility at 24 h: 100 µg/mL (≈ 193 µM)
[1]
  IC50: 20 µM
[2]
  IC50: > 50 µM

## Cc1cc(OCCC(C)(C)O)cc(C)c1-c1ccc(F)c2c1CC[C@H]2Nc1ccc([C@@H]2C[C@H]2C(=O)O)nc1 [Example 3, (1R,2R)-2-(5-{(R)-7-Fluoro-4-[4-(3-hydroxy-3-methyl-butoxy)-2,6-dimethyl-phenyl]-indan-1-ylamino}-pyridin-2-yl)-cyclopropanecarboxylic acid]
Human GPR40 receptor; [3]
  EC50: 107 nM

## Cc1cc(OCCCS(C)(=O)=O)cc(C)c1-c1ccc(F)c2c1CC[C@H]2Nc1ccc([C@H]2C[C@@H]2C(=O)O)nc1 [Example 4, (1S,2S)-2-(5-{(R)-7-Fluoro-4-[4-(3-methanesulfonyl-propoxy)-2,6-dimethyl-phenyl]-indan-1-ylamino}-pyridin-2-yl)-cyclopropanecarboxylic acid]
Human GPR40 receptor; [3]
  EC50: 7 nM
Human GPR40 receptor; [4]
  EC50: 7 nM
Aqueous solubility
  solubility at 24 h: 97 µg/mL (≈ 176 µM)
[1]
  IC50: > 50 µM
[2]
  IC50: > 50 µM

## Cc1cc(-c2nnn(C)n2)cc(C)c1-c1cccc2c1CC[C@H]2Nc1ccc([C@H]2C[C@@H]2C(=O)O)nc1 [Example 6, (1S,2S)-2-(5-{(R)-4-[2,6-Dimethyl-4-(2-methyl-2H-tetrazol-5-yl)-phenyl]-indan-1-ylamino}-pyridin-2-yl)-cyclopropanecarboxylic acid]
Human GPR40 receptor; [3]
  EC50: 3 nM
Aqueous solubility
  solubility at 24 h: 68 µg/mL (≈ 141 µM)
[1]
  IC50: 29 µM
[2]
  IC50: > 50 µM

## Cc1cc(OCCC(C)(C)O)cc(C)c1-c1cccc2c1CC[C@H]2Nc1ccc([C@H]2C[C@@H]2C(=O)O)nc1 [Example 7, (1S,2S)-2-(5-{(R)-4-[4-(3-Hydroxy-3-methyl-butoxy)-2,6-dimethyl-phenyl]-indan-1-ylamino}-pyridin-2-yl)-cyclopropanecarboxylic acid]
Human GPR40 receptor; [3]
  EC50: 5 nM
Aqueous solubility
  solubility at 24 h: 84 µg/mL (≈ 168 µM)
[1]
  IC50: > 50 µM
[2]
  IC50: > 50 µM

## COc1ccc(-c2cccc3c2CC[C@H]3Nc2ccc([C@H]3C[C@@H]3C(=O)O)nc2)cc1F [Example 8, (1S,2S)-2-{5-[(R)-4-(3-Fluoro-4-methoxy-phenyl)-indan-1-ylamino]-pyridin-2-yl}-cyclopropanecarboxylic acid]
Human GPR40 receptor; [3]
  EC50: 100 nM
Aqueous solubility
  solubility at 24 h: 62 µg/mL (≈ 148 µM)
[1]
  IC50: > 50 µM
[2]
  IC50: > 50 µM

## COc1cnc(-c2ccc(-c3cccc4c3CC[C@H]4Nc3ccc([C@H]4C[C@@H]4C(=O)O)nc3)cc2)cn1 [Example 9, (1S,2S)-2-(5-{(R)-4-[4-(5-Methoxy-pyrazin-2-yl)-phenyl]-indan-1-ylamino}-pyridin-2-yl)-cyclopropanecarboxylic acid]
Human GPR40 receptor; [3]
  EC50: 24 nM
Aqueous solubility
  solubility at 24 h: < 1 µg/mL
[1]
  IC50: 20 µM
[2]
  IC50: > 50 µM

## Cc1nnc(-c2ccc(-c3cccc4c3CC[C@H]4Nc3ccc([C@H]4C[C@@H]4C(=O)O)nc3)cc2)o1 [Example 10, (1S,2S)-2-(5-{(R)-4-[4-(5-Methyl-[1,3,4]oxadiazol-2-yl)-phenyl]-indan-1-ylamino}-pyridin-2-yl)-cyclopropanecarboxylic acid]
Human GPR40 receptor; [3]
  EC50: 146 nM

## Cc1cc(OCCCS(C)(=O)=O)cc(C)c1-c1ccc(F)c2c1CC[C@H]2Oc1ccc([C@H]2C[C@@H]2C(=O)O)nc1 [Example 11 in WO 2013/178575, reference compound]
Human GPR40 receptor; [4]
  EC50: 8 nM
[1]
  IC50: 12 µM
[2]
  IC50: 17 µM

## Cc1cc(C(N)=O)cc(C)c1-c1ccc(F)c2c1CC[C@H]2Nc1ccc([C@H]2C[C@@H]2C(=O)O)nc1 [Example 11]
Human GPR40 receptor; [3]
  EC50: 30 nM
Aqueous solubility
  Solubility at pH value 2.2: >120 μg/mL
[1]
  IC50: > 50 µM
[2]
  IC50: > 50 µM

## Cc1cc(O[C@@H]2CCOC2)cc(C)c1-c1ccc(F)c2c1CC[C@H]2Nc1ccc([C@H]2C[C@@H]2C(=O)O)nc1 [Example 12]
Human GPR40 receptor; [3]
  EC50: 10 nM
Aqueous solubility
  Solubility at pH value 2.2: 105 μg/mL
[1]
  IC50: 30 µM
[2]
  IC50: > 50 µM

## Cc1cc(CO)cc(C)c1-c1ccc(F)c2c1CC[C@H]2Nc1ccc([C@H]2C[C@@H]2C(=O)O)nc1 [Example 13]
Human GPR40 receptor; [3]
  EC50: 25 nM
Aqueous solubility
  Solubility at pH value 2.2: 105 μg/mL
[1]
  IC50: 40 µM
[2]
  IC50: > 50 µM

## Cc1cc(C(=O)NCC(C)(C)O)cc(C)c1-c1ccc(F)c2c1CC[C@H]2Oc1ccc([C@H]2C[C@@H]2C(=O)O)cc1 [Example 15 in WO 2013/178575, reference compound]
Aqueous solubility
  solubility at 24 h: < 1 µg/mL
[1]
  IC50: 10 µM
[2]
  IC50: 31 µM

## Cc1cc(OCC2(C)COC2)cc(C)c1-c1ccc(F)c2c1CC[C@H]2Nc1ccc([C@H]2C[C@@H]2C(=O)O)nc1 [Example 15]
Human GPR40 receptor; [3]
  EC50: 8 nM
Aqueous solubility
  Solubility at pH value 2.2: 120 μg/mL
[1]
  IC50: 32 µM
[2]
  IC50: > 50 µM

## Cc1cc(OCC(=O)O)cc(C)c1-c1ccc(F)c2c1CC[C@H]2Nc1ccc([C@H]2C[C@@H]2C(=O)O)nc1 [Example 16]
Human GPR40 receptor; [3]
  EC50: 924 nM
Aqueous solubility
  Solubility at pH value 2.2: 96 μg/mL
[1]
  IC50: > 50 µM
[2]
  IC50: > 50 µM

## Cc1cc(OCC(C)(C)C#N)cc(C)c1-c1ccc(F)c2c1CC[C@H]2Nc1ccc([C@H]2C[C@@H]2C(=O)O)nc1 [Example 17]
Human GPR40 receptor; [3]
  EC50: 10 nM
Aqueous solubility
  Solubility at pH value 2.2: 64 μg/mL
[1]
  IC50: 19 µM
[2]
  IC50: 36 µM

## Cc1cc(-c2ccn(C)c(=O)n2)cc(C)c1-c1ccc(F)c2c1CC[C@H]2Nc1ccc([C@H]2C[C@@H]2C(=O)O)nc1 [Example 18]
Human GPR40 receptor; [3]
  EC50: 5 nM
Aqueous solubility
  Solubility at pH value 2.2: >130 μg/mL
[1]
  IC50: 21 µM
[2]
  IC50: > 50 µM

## Cc1cc(-c2ccnn2C)cc(C)c1-c1ccc(F)c2c1CC[C@H]2Nc1ccc([C@H]2C[C@@H]2C(=O)O)nc1 [Example 19]
Human GPR40 receptor; [3]
  EC50: 12 nM
Aqueous solubility
  Solubility at pH value 2.2: 95 μg/mL
[1]
  IC50: 7 µM
[2]
  IC50: 26 µM

## Cc1cc(-c2nnn(C)n2)cc(C)c1-c1ccc(F)c2c1CC[C@H]2Nc1ccc([C@H]2C[C@@H]2C(=O)O)nc1 [Example 30]
Human GPR40 receptor; [3]
  EC50: 3 nM
[1]
  IC50: 20 µM
[2]
  IC50: > 50 µM

## Cc1cccc(C)c1-c1ccc(F)c2c1CC[C@H]2Oc1ccc(C2CC2C(=O)O)cc1 (some centres unmarked) [Example 33 in WO 2013/178575, reference compound]
[1]
  IC50: 5 µM
[2]
  IC50: 7 µM

## Cc1c(C#N)cccc1-c1ccc(F)c2c1CC[C@H]2Oc1ccc([C@H]2C[C@@H]2C(=O)O)cc1 [Example 54 in WO 2013/178575, reference compound]
Aqueous solubility
  solubility at 24 h: < 1 µg/mL
[1]
  IC50: 9 µM
[2]
  IC50: 10 µM
